Data reported in patent US10941158B2, “Pyrazole ACC inhibitors and uses thereof” (Gilead Apollo, LLC, priority 2015, dated 2021).
pIC50: −log10 of the molar value. ≈ marks a conversion by molar mass, not a printed value. Where two headings read alike, the source gives them in different places.

Columns and labels:
[1] = test system: Fusarium moniliforme (Fm); experiment: Growth inhibition assay of fungal pathogens; type: cell-based; settings: for IC90: Fusarium verticillioides, 48 h, read-out: Concentration at 90% Inhibition Fm
Experimental: (§1) Compounds of the present invention were evaluated in a growth inhibition assay to determine the ability to control the growth of fungal pathogens, such as Botrtyis cinerea (Bc), Collectotrichum graminicola (Cg). Diplodia maydis (Dm), Fusarium moniliforme (Fm), Fusarium virguliforme (Fv), Phytophthora capsici (Pc), Rhizoctonia solani (Rs), and Septoria tritici (St). Compounds to be tested were dissolved in DMSO at 2.5 mg/ml to produce compound stock solutions (“stocks”). Stocks were diluted with DMSO by a five-fold dilution in a 96-well stock plate, and two sets of final concentrations of 50, 10, and 2 ppm or 2, 0.4, and 0.08 ppm were obtained in vitro. A set of positive controls was also prepared, with various concentrations of Soraphen (2, 0.4, and 0.08 ppm), Metalaxyl (1.1, 0.22, and 0.04 ppm), and Metconazole (2, 0.4, and 0.08 ppm or 0.2, 0.04, and 0.008 ppm) after the five-fold dilutions. Negative controls on each plate included 2% DMSO, water, and a blank (media+2% DMSO). Fungal spores were isolated from previously sub-cultured plates of Botrtyis cinerea (Bc). Collectotrichum graminicola (Cg). Diplodia maydis (Dm), Fusarium moniliforme (Fm), Fusarium virguliforme (Fv), Phytophthora capsici (Pc), and Septoria tritici (St). The isolated spores were diluted to individual concentrations with a 17% V8 liquid media. For Rhizoctonia solani (Rs) and Pythium irregulare, 1.5 mm mycelial plugs were used in place of spores and ¼ Potato Dextrose Broth (PDB) was used for dilution. The spore concentrations and plug sizes were based on growth curves generated at 48 hours for each pathogen. In a second 96-well plate, the spores or mycelial plugs, media, diluted compound solutions, and controls were combined. Once the compound was added, a true final concentration of compound in each well was measured by an OD600 reading, which adjusted for any compound precipitation that might have occurred in the well. Plate readings were repeated at both 24 and 48 hours. The blank negative control was used as a background subtraction. Additional visual ratings were performed at both 24 and 48 hours for checking on precipitation and confirming efficacy. Visual and OD600 ratings of the compounds at 48 hours were compared to the 2% DMSO negative control, and the percent of pathogen growth inhibition was determined based on those values.

[2] = test system: Fusarium virguliforme (Fv); experiment: Growth inhibition assay of fungal pathogens; type: cell-based; settings: 48 h
Experimental: as §1

[3] = test system: Diplodia maydis (Dm); experiment: Growth inhibition assay of fungal pathogens; type: cell-based; settings: Stenocarpella maydis, 48 h, read-out: Concentration at 90% Inhibition Dm
Experimental: as §1

[4] = test system: Septoria tritici (St); experiment: Growth inhibition assay of fungal pathogens; type: cell-based; settings: for IC90: Zymoseptoria tritici, read-out: Concentration at 90% Inhibition St
Experimental: as §1

[5] = test system: Rhizoctonia solani (Rs); experiment: Growth inhibition assay of fungal pathogens; type: cell-based; settings: 48 h, read-out: Concentration at 90% Inhibition Rs
Experimental: as §1

[6] = test system: Phytophthora capsici (Pc); experiment: Growth inhibition assay of fungal pathogens; type: cell-based; settings: for IC90: Phytophthora capsici, read-out: Concentration at 90% Inhibition Pc
Experimental: as §1

[7] = test system: Collectotrichum graminicola (Cg); experiment: Growth inhibition assay of fungal pathogens; type: cell-based; settings: 48 h, read-out: Concentration at 90% Inhibition Cg
Experimental: as §1

[8] = test system: Botrtyis cinerea (Bc); experiment: Growth inhibition assay of fungal pathogens; type: cell-based; settings: 48 h, read-out: Concentration at 90% Inhibition Bc
Experimental: as §1

[9] = test system: C. albicans ATCC 90028; experiment: Anti-Fungal (Candida) Activity Assay, broth microtiter MIC; type: cell-based; settings: read-out: MIC C. albicans ATCC 90028
Experimental: (§2) Compounds of the present invention were evaluated in an Anti-Fungal Activity Assay. An exemplary procedure for the assay, which measures the susceptibility of various Candida species to anti-fungal compounds, follows. Compounds to be tested (including fluconazole and amphotericin B) were dissolved in DMSO to obtain a solution having a concentration of 1 mg/mL. […] All species were grown from frozen stock by directly plating on to freshly prepared Sabouraud Dextrose agar (BD, Difco) and incubated overnight in ambient air at 35° C. for 24 h. A direct suspension was prepared in RPMI 1640+MOPS (Lonza, Biowhittaker) by taking individual colonies from the overnight cultures using sterile swabs soaked in sterile saline. The concentration of the suspension was determined using pre-determined standard curves. […] Broth microtiter MIC challenge plates were prepared following CLSI guidelines (M27-A3, Vol. 28 No. 14). The original CLSI guidelines focused on reading Candida MICs after 48 h of incubation. As reading after only 24 h offers a clear advantage of patient care, QC limits are being established for all drugs at 24 h. That being said there are no known interpretive breakpoints for amphotericin B at 24 h and the current fluconazole interpretive breakpoints are based on a 48 h reading. The MIC for the test compounds were recorded at 48 h. All MIC determinations were achieved by visually comparing the growth found in the antibiotic challenged wells to that of the growth control.

[10] = test system: C. parapsilosis ATCC 22019; experiment: as above; type: cell-based; settings: Lodderomyces parapsilosis, read-out: MIC C. parapsilosis ATCC 22019
Experimental: as §2

[11] = test system: C. krusei ATCC 6258; experiment: as above; type: cell-based; settings: Pichia kudriavzevii, read-out: MIC C. krusei ATCC 6258
Experimental: as §2

[12] = molecular target: human (hACC2) ACC2 (Homo sapiens, UniProt O00763); experiment: In vitro Acetyl-CoA Carboxylase (ACC) inhibition assay (ADP-Glo), hACC2; type: biochemical
Experimental: The detailed procedure is as follows. […] 10 μL ADP glo reagent was added. […] 20 μL kinase detection reagent was added.
“NA” stands for “not assayed.”

[13] = Table 4a, 48 hours, read-out: Concentration at 90% Inhibition Fv
[14] = Table 4b, 48 hours, read-out: Concentration at 90% Inhibition Fv
[15] = ATCC90028, 3 replicates, MIC recorded at 48 h
[16] = ATCC22019, 3 replicates, MIC recorded at 48 h
[17] = ATCC6258, 3 replicates, MIC recorded at 48 h

Sequence of human (hACC2) ACC2 (O00763 whole entry): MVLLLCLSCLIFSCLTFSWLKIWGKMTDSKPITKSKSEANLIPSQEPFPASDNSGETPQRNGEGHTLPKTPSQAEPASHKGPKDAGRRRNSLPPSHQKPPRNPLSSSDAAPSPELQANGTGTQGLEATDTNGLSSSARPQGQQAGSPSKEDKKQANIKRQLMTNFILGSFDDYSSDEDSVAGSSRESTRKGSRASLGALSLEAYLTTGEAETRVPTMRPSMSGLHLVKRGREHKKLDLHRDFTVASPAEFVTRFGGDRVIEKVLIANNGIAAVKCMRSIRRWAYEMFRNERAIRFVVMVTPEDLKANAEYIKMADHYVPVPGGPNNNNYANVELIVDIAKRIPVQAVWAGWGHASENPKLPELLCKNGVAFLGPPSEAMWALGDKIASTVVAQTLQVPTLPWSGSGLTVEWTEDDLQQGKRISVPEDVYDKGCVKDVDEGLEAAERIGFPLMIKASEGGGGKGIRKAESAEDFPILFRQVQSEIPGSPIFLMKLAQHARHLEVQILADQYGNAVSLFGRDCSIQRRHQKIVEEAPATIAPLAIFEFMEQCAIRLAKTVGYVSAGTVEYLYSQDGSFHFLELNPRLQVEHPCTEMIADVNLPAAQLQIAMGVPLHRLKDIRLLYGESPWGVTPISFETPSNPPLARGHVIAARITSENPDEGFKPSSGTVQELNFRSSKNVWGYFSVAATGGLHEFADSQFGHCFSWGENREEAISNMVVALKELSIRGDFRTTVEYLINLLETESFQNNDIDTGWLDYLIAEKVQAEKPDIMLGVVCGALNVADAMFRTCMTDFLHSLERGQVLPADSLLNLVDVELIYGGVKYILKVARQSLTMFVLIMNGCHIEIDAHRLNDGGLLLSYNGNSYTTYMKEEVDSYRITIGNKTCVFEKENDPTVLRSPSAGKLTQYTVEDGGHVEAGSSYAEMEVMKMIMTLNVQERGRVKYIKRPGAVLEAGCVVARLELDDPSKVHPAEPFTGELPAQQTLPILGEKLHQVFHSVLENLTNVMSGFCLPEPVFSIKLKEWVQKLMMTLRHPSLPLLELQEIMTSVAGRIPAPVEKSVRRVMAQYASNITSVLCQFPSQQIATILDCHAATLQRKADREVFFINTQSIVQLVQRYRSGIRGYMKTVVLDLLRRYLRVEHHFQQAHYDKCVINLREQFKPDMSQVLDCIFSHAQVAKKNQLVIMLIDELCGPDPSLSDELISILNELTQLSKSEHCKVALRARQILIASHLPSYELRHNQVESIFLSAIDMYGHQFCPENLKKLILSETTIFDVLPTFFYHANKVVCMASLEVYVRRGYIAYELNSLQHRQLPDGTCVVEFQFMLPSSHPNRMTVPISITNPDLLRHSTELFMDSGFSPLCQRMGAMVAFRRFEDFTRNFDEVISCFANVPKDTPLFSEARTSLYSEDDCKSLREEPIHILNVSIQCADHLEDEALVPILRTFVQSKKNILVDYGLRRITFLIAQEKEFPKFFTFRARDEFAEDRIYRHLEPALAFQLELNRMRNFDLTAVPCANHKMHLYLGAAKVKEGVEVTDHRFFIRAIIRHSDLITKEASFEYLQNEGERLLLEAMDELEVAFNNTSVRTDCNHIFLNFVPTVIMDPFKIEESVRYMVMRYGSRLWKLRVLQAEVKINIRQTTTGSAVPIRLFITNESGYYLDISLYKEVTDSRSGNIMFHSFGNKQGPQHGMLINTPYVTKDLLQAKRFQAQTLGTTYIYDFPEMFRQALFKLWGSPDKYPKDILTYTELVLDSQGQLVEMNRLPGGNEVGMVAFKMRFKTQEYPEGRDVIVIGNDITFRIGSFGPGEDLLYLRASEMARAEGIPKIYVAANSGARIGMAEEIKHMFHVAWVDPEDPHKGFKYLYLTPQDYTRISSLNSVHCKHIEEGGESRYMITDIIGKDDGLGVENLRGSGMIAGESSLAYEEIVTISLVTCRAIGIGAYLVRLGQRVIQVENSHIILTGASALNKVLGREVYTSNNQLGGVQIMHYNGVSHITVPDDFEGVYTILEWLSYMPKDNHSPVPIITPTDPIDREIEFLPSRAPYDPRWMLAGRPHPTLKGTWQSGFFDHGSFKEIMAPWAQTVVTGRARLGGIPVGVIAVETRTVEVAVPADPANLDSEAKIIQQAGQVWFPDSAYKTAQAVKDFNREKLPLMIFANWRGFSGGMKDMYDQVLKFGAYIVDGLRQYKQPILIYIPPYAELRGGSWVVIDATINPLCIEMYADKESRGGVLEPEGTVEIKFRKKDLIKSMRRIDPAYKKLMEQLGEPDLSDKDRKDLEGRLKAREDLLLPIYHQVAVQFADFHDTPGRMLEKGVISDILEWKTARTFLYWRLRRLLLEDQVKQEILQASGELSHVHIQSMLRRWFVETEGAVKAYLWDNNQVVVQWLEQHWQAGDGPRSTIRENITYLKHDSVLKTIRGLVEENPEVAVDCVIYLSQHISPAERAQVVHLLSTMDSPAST

Compound | IC90 ([3]; Table 4a) [µg/mL] | IC90 ([3]; Table 4b) [µg/mL] | IC90 ([5]; Table 4a) [µg/mL] | IC90 ([5]; Table 4b) [µg/mL] | IC90 ([7]; Table 4a) [µg/mL] | IC90 ([7]; Table 4b) [µg/mL] | IC90 ([8]; Table 4a) [µg/mL] | IC90 ([8]; Table 4b) [µg/mL] | pIC50 [12] | IC90 ([1]; Table 4a, 48 hours) [µg/mL] | IC90 ([1]; Table 4b, 48 hours) [µg/mL] | IC90 [2, 13] [µg/mL] | IC90 [2, 14] [µg/mL] | Concentration at 90% Inhibition St ([4]; Table 4b, 48 hours) | IC90 ([4]; Table 4a, 48 hours) [µg/mL] | IC90 ([6]; Table 4a, 48 hours) [µg/mL] | Concentration at 90% Inhibition Pc ([6]; Table 4b, 48 hours) | MIC [9, 15] [µg/mL] | MIC [10, 16] [µg/mL] | MIC [11, 17] [µg/mL] | further results
COc1ccccc1[C@H](Cn1c(=O)n(C(C)(C)C(=O)NC(C)C)c(=O)c2c(C)c(-n3cccn3)sc21)OC1CCOCC1 [Compound I-11, (R)—N-isopropyl-2-(1-(2-(2-methoxyphenyl)-2-((tetrahydro-2H-pyran-4-yl)oxy)ethyl)-5-methyl-2,4-dioxo-6-(1H-pyrazol-1-yl)-1,4-dihydrothieno[2,3-d]pyrimidin-3(2H)-yl)-2-methylpropanamide] | > 50 | 10 (≈ 16.4 µM) | > 50 | > 50 | > 50 | 10 (≈ 16.4 µM) | > 50 | 10 (≈ 16.4 µM) | 7.40 to 8.00 | – | – | – | – | – | – | – | – | – | – | – | IC90 [1]: 2 µg/mL (≈ 3.28 µM); Concentration at 90% Inhibition Fm ([1]; Table 4b, 48 hours): B (“B” provided a compound concentration of 2.0 ppm at 90% inhibition of fungal pathogens); IC90 ([2]; read-out: Concentration at 90% Inhibition Fv, Table 4a, 48 hours): > 50 µg/mL; IC90 ([2]; read-out: Concentration at 90% Inhibition Fv, Table 4b, 48 hours): 10 µg/mL (≈ 16.4 µM); IC90 ([4]; 48 h, Table 4a): > 50 µg/mL; IC90 ([4]; 48 h, Table 4b): > 50 µg/mL; IC90 ([6]; 48 h, Table 4a): > 50 µg/mL; IC90 ([6]; 48 h, Table 4b): > 50 µg/mL; MIC ([9]; ATCC90028, 48 h): > 4.1 µg/mL; MIC ([10]; ATCC22019, 48 h): > 4.1 µg/mL; MIC ([11]; ATCC6258, 48 h): > 4.1 µg/mL
COc1ccccc1[C@H](Cn1c(=O)n(C(C)(C)C(=O)N2CCCC2)c(=O)c2c(C)c(-n3cccn3)sc21)OC1CCOCC1 [Compound I-12, (R)-1-(2-(2-methoxyphenyl)-2-((tetrahydro-2H-pyran-4-yl)oxy)ethyl)-5-methyl-3-(2-methyl-1-oxo-1-(pyrrolidin-1-yl)propan-2-yl)-6-(1H-pyrazol-1-yl)thieno[2,3-d]pyrimidine-2,4(1H,3H)-dione] | > 50 | 10 (≈ 16.1 µM) | 2 (≈ 3.22 µM) | 2 (≈ 3.22 µM) | 10 (≈ 16.1 µM) | 2 (≈ 3.22 µM) | > 50 | 10 (≈ 16.1 µM) | 8.00 to 8.52 | 0.4 (≈ 0.643 µM) | 0.4 (≈ 0.643 µM) | > 50 | 10 (≈ 16.1 µM) | D (“D” provided a compound concentration of >50 ppm at 90% inhibition of fungal pathogens) | > 50 | > 50 | D (“D” provided a compound concentration of >50 ppm at 90% inhibition of fungal pathogens) | 2.1 to 4 (≈ 3.38 to 6.43 µM) | > 4.1 | 2.1 to 4 (≈ 3.38 to 6.43 µM) | –
COc1ccc(F)cc1[C@H](Cn1c(=O)n(C(C)(C)C(=O)NC(C)C)c(=O)c2c(C)c(-n3cccn3)sc21)O[C@H]1CC[C@@H](O)CC1 [Compound I-14, 2-(1-((R)-2-(5-fluoro-2-methoxyphenyl)-2-(((1s,4S)-4-hydroxycyclohexyl)oxy)ethyl)-5-methyl-2,4-dioxo-6-(1H-pyrazol-1-yl)-1,4-dihydro-thieno[2,3-d]pyrimidin-3(2H)-yl)-N-isopropyl-2-methylpropanamide] | 2 (≈ 3.12 µM) | 2 (≈ 3.12 µM) | 2 (≈ 3.12 µM) | 2 (≈ 3.12 µM) | > 50 | > 50 | 0.4 (≈ 0.623 µM) | 0.4 (≈ 0.623 µM) | 8.00 to 8.52 | 0.08 (≈ 0.125 µM) | 0.08 (≈ 0.125 µM) | 2 (≈ 3.12 µM) | 2 (≈ 3.12 µM) | D (“D” provided a compound concentration of >50 ppm at 90% inhibition of fungal pathogens) | > 50 | > 50 | D (“D” provided a compound concentration of >50 ppm at 90% inhibition of fungal pathogens) | 0.25 to 1 (≈ 0.39 to 1.56 µM) | 0.25 to 1 (≈ 0.39 to 1.56 µM) | 1.1 to 2 (≈ 1.71 to 3.12 µM) | –
COc1ccc(F)cc1[C@H](Cn1c(=O)n(C(C)(C)C(=O)N2CCCC2)c(=O)c2c(C)c(-n3cccn3)sc21)O[C@H]1CC[C@@H](O)CC1 [Compound I-15, 1-((R)-2-(5-fluoro-2-methoxyphenyl)-2-(((1s,4S)-4-hydroxycyclohexyl)oxy)ethyl)-5-methyl-3-(2-methyl-1-oxo-1-(pyrrolidin-1-yl)pro-pan-2-yl)-6-(1H-pyrazol-1-yl)thieno[2,3-d]pyrimidine-2,4(1H,3H)-dione] | > 50 | 10 (≈ 15.3 µM) | > 50 | 10 (≈ 15.3 µM) | > 50 | 10 (≈ 15.3 µM) | 2 (≈ 3.06 µM) | 2 (≈ 3.06 µM) | 8.00 to 8.52 | 0.4 (≈ 0.612 µM) | 0.4 (≈ 0.612 µM) | 2 (≈ 3.06 µM) | 2 (≈ 3.06 µM) | D (“D” provided a compound concentration of >50 ppm at 90% inhibition of fungal pathogens) | > 50 | > 50 | D (“D” provided a compound concentration of >50 ppm at 90% inhibition of fungal pathogens) | 0.25 to 1 (≈ 0.382 to 1.53 µM) | 0.25 to 1 (≈ 0.382 to 1.53 µM) | 1.1 to 2 (≈ 1.68 to 3.06 µM) | –
